# Tests used:
# [1] = Inhibition of HIV1 KP-5mp1 gp120 interaction with CD4 human TZM-bl cells assessed as decrease in viral entry by MTT assay
# [2] = Inhibition of HIV1 KP-5mvcR gp120 interaction with CD4 in human TZM-bl cells assessed as decrease in viral entry by MTT assay
IC50 [1],IC50 [2],Compound
13000 nM,330 nM,N=C(N)NCCCCC(=O)NCCCC[C@H](NC(=N)N)C(=O)NCCN1CCC(NC(=O)C(=O)Nc2ccc(Cl)cc2)CC12CCCCC2 (stereo not given in full)
2900 nM,420 nM,N=C(N)NCCCCCCCC(=O)NCCCC[C@H](NC(=N)N)C(=O)NCCN1CCC(NC(=O)C(=O)Nc2ccc(Cl)cc2)CC12CCCCC2 (stereo not given in full)
,570 nM,COCCOCCOCCOCCOCCNC(=O)CCC(=O)OC(CCCNS(=O)(=O)c1ccc([N+](=O)[O-])cc1)C(=O)NCCN1CCC(NC(=O)C(=O)Nc2ccc(Cl)cc2)CC12CCCCC2 (stereo not given)
,250 nM,CCCCCCCCCCCCCCCCNC(=O)CCC(=O)OC(CCCN)C(=O)NCCN1CCC(NC(=O)C(=O)Nc2ccc(Cl)cc2)CC12CCCCC2 (stereo not given)
,46 nM,COCCOCCOCCOCCOCCNC(=O)CCC(=O)OC(CCCN)C(=O)NCCN1CCC(NC(=O)C(=O)Nc2ccc(Cl)cc2)CC12CCCCC2 (stereo not given)
,1200 nM,CCCCCCCCCCCCCCCCNC(=O)CCC(=O)OC(CCCNC(=N)N)C(=O)NCCN1CCC(NC(=O)C(=O)Nc2ccc(Cl)cc2)CC12CCCCC2 (stereo not given)
,17 nM,COCCOCCOCCOCCOCCNC(=O)CCC(=O)OC(CCCNC(=N)N)C(=O)NCCN1CCC(NC(=O)C(=O)Nc2ccc(Cl)cc2)CC12CCCCC2 (stereo not given)
,130 nM,COCCOCCOCCOCCOCCNC(=O)CCC(=O)N[C@@H](CCCNC(=N)N)C(=O)NCCN1CCC(NC(=O)C(=O)Nc2ccc(Cl)cc2)CC12CCCCC2 (stereo not given in full)
,< 100 nM,COCCOCCOCCOCCOCCOCCOCCOCCOCCOCCOCCOCCNC(=O)CCC(=O)N[C@@H](CCCNC(=N)N)C(=O)NCCN1CCC(NC(=O)C(=O)Nc2ccc(Cl)cc2)CC12CCCCC2 (stereo not given in full)

# Continued, compound first:
Compound,IC50 [1],IC50 [2]
N=C(N)NCCCCCCCCCCC(=O)NCCN1CCC(NC(=O)C(=O)Nc2ccc(Cl)cc2)CC12CCCCC2 (stereo not given),43000 nM,720 nM
N=C(N)NCCCCC(=O)NCCN1CCC(NC(=O)C(=O)Nc2ccc(Cl)cc2)CC12CCCCC2 (stereo not given),2100 nM,120 nM
N=C(N)NCCCC[C@H](NC(=N)N)C(=O)NCCN1CCC(NC(=O)C(=O)Nc2ccc(Cl)cc2)CC12CCCCC2 (stereo not given in full),3900 nM,290 nM
N=C(N)NCC(=O)NCCCC[C@H](NC(=N)N)C(=O)NCCN1CCC(NC(=O)C(=O)Nc2ccc(Cl)cc2)CC12CCCCC2 (stereo not given in full),4400 nM,230 nM
N=C(N)NCCCCCCCCCCC(=O)NCCCC[C@H](NC(=N)N)C(=O)NCCN1CCC(NC(=O)C(=O)Nc2ccc(Cl)cc2)CC12CCCCC2 (stereo not given in full),4800 nM,880 nM
CCCCCCCCCCCCCCCCNC(=O)CCC(=O)OC(CCCNS(=O)(=O)c1ccc([N+](=O)[O-])cc1)C(=O)NCCN1CCC(NC(=O)C(=O)Nc2ccc(Cl)cc2)CC12CCCCC2 (stereo not given),,3400 nM
COCCOCCOCCOCCOCCOCCOCCOCCOCCOCCOCCOCCOCCOCCOCCOCCOCCOCCOCCOCCOCCOCCOCCOCCNC(=O)CCC(=O)N[C@@H](CCCNC(=N)N)C(=O)NCCN1CCC(NC(=O)C(=O)Nc2ccc(Cl)cc2)CC12CCCCC2 (stereo not given in full),,< 100 nM
N=C(N)NCCCCCCCC(=O)NCCN1CCC(NC(=O)C(=O)Nc2ccc(Cl)cc2)CC12CCCCC2 (stereo not given),> 100000 nM,
"CC1(C)CC(NC(=O)C(=O)Nc2ccc(Cl)cc2)CC(C)(C)N1 [N-(4-chlorophenyl)-N'-(2,2,6,6-tetramethylpiperidin-4-yl)-oxalamide]",6900 nM,

# Reference: BindingDB's records for doi:10.1021/acs.jmedchem.0c01153 (Tokyo Medical and Dental University (Tmdu), 2021)
